row,SMILES,melting point
1,Cc1ccnc(SCc2nc3ccc(CC(=O)O)cc3[nH]2)c1,121 to 124 °C
2,CC(C)c1nc(-c2ncn3c2COC(=O)c2ccccc2-3)no1,143 to 144 °C
3,Clc1cc(Cl)c2c(CCBr)coc2c1,43 °C
4,CCNC(=O)c1cc([N+](=O)[O-])ccc1Oc1cncc(Cl)c1,165 to 167 °C
5,CN(C(=O)OC(C)(C)C)c1ccc2onc(OCC(CO)NC(=O)OC(C)(C)C)c2c1 (centres undefined),109 to 112 °C
6,CC(=O)NCCc1ccc(CN2CCN(c3ccc(F)cc3)CC2)cc1,121 to 123 °C
7,N=C(N)Nc1nc(CSCCNC(N)=N[N+](=O)[O-])ns1,184 to 186 °C
8,O=C1Oc2ccc3ccccc3c2CC1C(=O)c1cccc(C(F)(F)F)c1 (centres undefined),192 to 193 °C
9,CNc1ccc(C=CC(=O)c2ccc(NC)cc2)cc1,150 to 151 °C
10,O=c1c(Br)c(N2CCC(c3ccccc3)CC2)ccn1CC1CC1,150 °C
11,COc1ccc(-c2nc(C(N)=O)oc2-c2ccc(OC)cc2)cc1,133 to 135 °C
12,COc1cccc(-c2cc(C3CNC(=O)C3)ccc2OC)c1 (centres undefined),137 to 139 °C
13,CCOc1ncc(C(=O)O)c2c(N)cccc12,159 to 165 °C
14,CNc1c(OC)cc(C(=O)CS(C)(=O)=O)cc1OC,98 to 99 °C
15,CCNCCC(=O)N1c2ccccc2CCc2ccc(NC(=O)OCC)cc21,150 °C
16,CN(C)C=Nc1nc2c(nnn2C2CC(O)C(CO)O2)c(=O)[nH]1 (centres undefined),236 °C
17,CCOc1cc(OCCCc2cn(-c3ccc(C(F)(F)F)cn3)nc2O)ccc1CCC(=O)OC,147 to 148 °C
18,O=c1c(CCCO)c(O)c2cccnc2n1-c1ccccc1,218 to 220 °C
19,CCOP(=O)(OCC)c1ccccc1,256 °C
20,COC(=O)c1cnc(N)c([N+](=O)[O-])c1,195 to 196 °C

row,SMILES,melting point
1,CC(=O)NC1CCc2c(n(C)c3ccccc23)C1 (centres undefined),171 to 172 °C
2,CCCCCC(=O)CCC(=O)O,67 to 68 °C
3,N#Cc1nn(-c2c(Cl)cc(C(F)(F)F)cc2Cl)c(N)c1C(F)(F)F,191 to 193 °C
4,O=C(CCl)Nc1ccc(C(=O)N2CCc3cc(S(=O)(=O)n4cc(-c5ccccc5)[nH]c4=O)ccc32)cc1,188 to 189 °C
5,Clc1ccc2[nH]cc(C3CCNCC3)c2c1,156 to 158 °C
6,CC(c1ccncc1Cl)C(O)(Cn1cncn1)c1ccc(F)cc1F (centres undefined),182 to 184 °C
7,CS(=O)(=O)C(Cl)(Cl)C(=O)c1ccccc1Cl,81 to 82 °C
8,CCCC1(C2=CCN(C)CC2)c2ccccc2CCc2ccccc21,122 to 124 °C
9,O=C(NS(=O)(=O)c1ccc(Cl)cc1)N1C(=O)C(c2ccccc2)N1C(c1ccccc1)c1ccccc1 (centres undefined),162 to 163 °C
10,COCCNC(=O)c1ccc(Br)c(C)c1,79 to 81 °C
11,COc1nc(C)c([N+](=O)[O-])cc1C,85.9 to 90.5 °C
12,c1ccc2nc(COc3ccc(Cc4nnn[nH]4)cc3)ccc2c1,173 to 175 °C
13,CNN(NC)C(=O)Sc1cccnc1C(=O)OC,56 to 58 °C
14,N#Cc1c[nH]cc1-c1cccc2c1OCO2,206 to 208 °C
15,CCOC(=O)c1cn(-c2cccnc2)nc1N,140 to 141 °C
16,Cc1c(C(=O)Nc2cccc(C#N)c2N2CCC(CN3CCOCC3)CC2)cnn1-c1ccc(Cl)cc1,235 °C
17,CCOC(=O)CN(N)C(=O)Nc1ccccc1C(=O)C1CCCCC1,108 to 110 °C
18,COCN(c1cccc2cc(-c3ncn(C)n3)n(COC)c12)S(=O)(=O)c1cccs1,157 to 158 °C
19,COCCc1cc(N)n2nc(SC)c(S(=O)(=O)c3ccccc3)c2n1,186 to 187 °C
20,O=[N+]([O-])C=C1NCCCS1,76 to 78 °C

row,SMILES,melting point
1,COc1ccc2c(c1OC)CCCC(C(=O)O)=C2,208 to 209 °C
2,Cc1cc2c(s1)c(=O)c(S(C)=O)cn2C (centres undefined),263 to 264 °C
3,O=C(Cn1ncc(-c2ccccc2)c1-c1ccccc1)NCCN1CCCC1,80 to 84 °C
4,N#CN1CCC(C2(O)c3ccccc3CCc3ccc(F)cc32)CC1 (centres undefined),250 °C
5,COc1cc2cc(CC(C)C)sc2c(Cl)c1Cl,40 to 41 °C
6,Cc1nc2c(N)nc3ccccc3c2n1CCCCNC(=O)Nc1ccccc1,172 °C
7,CN1C(=O)N(CCC(NS(=O)(=O)c2ccc(-c3ccc(Cl)cc3)cc2)C(=O)NO)C(=O)C1(C)C (centres undefined),117 to 120 °C
8,CN(N=Cc1ccccc1)C(=NC(=O)CN1C(=O)c2ccccc2C1=O)NCCCOc1cccc(CN2CCCCC2)c1,84.5 °C
9,Cc1cc(C(=O)N(C)C)ncc1C(c1c(F)ccc(F)c1F)S(=O)(=O)CCC(F)(F)F (centres undefined),203 to 204 °C
10,CCC(COC(=O)c1ccc[nH]1)C1CN(C)C2Cc3cn(C)c4cccc(c34)C2(OC)C1 (centres undefined),96 to 98 °C
11,CC1(C)Oc2ccc(C#N)cc2[C@H](N(Cc2ccco2)c2ncco2)[C@H]1O,63 °C
12,FC(F)(F)c1ccc(-c2ccc3nncn3n2)cc1,160 to 161 °C
13,COC(C)C#Cc1ncn2c1CN(C)C(=O)c1c(Cl)cccc1-2 (centres undefined),139 to 141 °C
14,CN1Cc2ccccc2[C@H]2c3cccc4c3[C@H](CN4)C[C@@H]21 (relative stereo),184 to 185 °C
15,CC(C)OC(=O)CCC(=O)c1ccc(Cl)c(S(N)(=O)=O)c1,128 to 130 °C
16,COc1ccc(Cn2c(=O)c3ccccc3n(CCCCN3CCC(OC(c4ccccc4)c4ccccc4)CC3)c2=O)cc1,99 to 100 °C
17,Cc1ccc(C(=O)Nc2ccc(CN3CCN(C)CC3)cc2)cc1Nc1nccc(-c2cccnc2)n1,153 to 155 °C
18,CC(=O)N1CCC(C(C)(O)c2ccc(Cl)cc2)CC1 (centres undefined),178 to 180 °C
19,CS(=O)(=O)c1cc(C(F)(F)F)ns1,93 to 94 °C
20,O=[N+]([O-])c1cc2c(cc1Oc1ccccc1)CCC2,41 °C

# Results, then the compound that gave them:
row,melting point,SMILES
1,84.5 to 85.5 °C,Clc1cc(Cl)c2c(c1)CCC(N1CCCC1)=C2
2,149 to 150 °C,CC(=O)CC(=O)N1C(=N)CCN=C(c2ccccc2)c2cc(Cl)ccc21
3,120 to 122 °C,Cc1ccsc1C(=O)Cc1ccc(C(F)(F)F)cc1[N+](=O)[O-]
4,78 to 79 °C,CCOC(=O)c1cnn(Cc2ccccc2)c1-c1ccccc1
5,211 to 212 °C,CCOCc1nc2c(N)nc3cc(OCc4ccccc4Cl)ccc3c2n1CC(C)C
6,164 to 165 °C,CNc1nc(C)c(C(C)=O)s1
7,72 to 74 °C,CC(C)(C)OC(=O)NCCCSc1ccncc1
8,75 to 76 °C,O=C(Nc1cccc([N+](=O)[O-])c1)C(Br)CCBr (racemic)
9,232 to 237 °C,C/C=C/c1nnc(N2N=C(c3ccc([N+](=O)[O-])c(C)c3)c3cc4c(cc3C[C@H]2C)OCO4)s1
10,99.8 °C,NCCN1CCC(Nc2nc3ccccc3[nH]2)CC1
11,189 to 190 °C,Cc1c(NC(=O)c2ccc(-c3ccc(F)cc3)cc2)ccc2cc(CN3CCC(CC(=O)N4CCCCC4)CC3)cnc12
12,127 to 129 °C,CNC(c1ccc(O)cc1)c1csc(S(N)(=O)=O)c1 (centres undefined)
13,180 to 185 °C,CC(=O)OCc1c(-c2cc(Nc3cc4n(n3)CCN(C3COC3)C4)c(=O)n(C)n2)cccc1-n1ncc2cc(C(C)(C)C)cc(F)c2c1=O
14,154 to 155 °C,Brc1ccc(-c2cc3c(ccc4ccccc43)o2)cc1
15,61 to 62 °C,O=C(COc1ccccc1)NCCO[N+](=O)[O-]
16,47 to 49 °C,COc1cc(SC)ccc1O
17,41 to 42 °C,CN(C/C=C\c1ccc(Cl)cc1)Cc1cccc2ccccc12
18,91 °C,Cc1c(Br)sc2cc(CO)ccc12
19,197 to 207 °C,COc1cc2c(c(Cl)c1Cl)C(=O)C(C)(c1ccccc1)C2c1ccccc1 (centres undefined)
20,169 to 170 °C,S=c1nc(-c2ccc(Cl)cc2Cl)[nH]n1Cc1ccccc1
21,173 to 175 °C,Cc1cc(C2(C(F)(F)F)CC(c3ccc(C(N)=O)cc3)=NO2)ccc1NC(=O)c1cccc(I)c1C(=O)NC(C)C (centres undefined)
22,73 to 75 °C,CCOC(=O)Cc1sc(Sc2cccc(C(=O)OCC)n2)nc1C

row,melting point,SMILES
1,115 to 116 °C,O=C(NC[C@@H]1CN2C(=O)C[C@H]2O1)c1ccccc1 (racemic)
2,120 °C,CN(O)C(=O)NCCc1cc2ccccc2o1
3,113 to 115 °C,O=C1c2cccc3cccc(c23)C(=O)N1CCCCBr
4,60 °C,c1ccc(CN2CCC(NC3CCOCC3)CC2)cc1
5,137 to 141 °C,CCCCNC(=O)Oc1ccc2c(N3CCN(CCCC(=O)c4ccc(F)cc4)CC3)noc2c1
6,157 to 160 °C,CCOC(=O)C(CCC(C)(C)c1cc(O)c(C(C)(C)CCC(C(=O)OCC)C(=O)OCC)cc1O)C(=O)OCC
7,260 °C,CCN(CC)C(=O)Nc1ccc(S(=O)(=O)N2C(=O)C(NCCN3CCNCC3)(c3ccccc3Cl)c3cc(Cl)ccc32)cc1 (centres undefined)
8,22 °C,CCCCCCCc1cnc([C@H]2CC[C@H](CCCCC)CC2)nc1
9,202 to 203 °C,O=C(O)C1CCc2sc3ccccc3c2C1 (centres undefined)
10,165 to 167 °C,CCn1nnc2c(sc3nc(C)ccc32)c1=O
11,49.5 to 51 °C,Cc1ccc(C(=S)CCCCCC#N)cc1
12,118 to 120 °C,CCN1C(=O)C(C)(C)C(=O)N(C)c2cc(CN(CCc3cccnc3)Cc3scnc3C)ccc21
13,183 °C,NS(=O)(=O)c1ncccc1NC=O
14,187 to 189 °C,C#CC(C)(C)OC(=O)Nc1ccc(-c2ncn(-c3ccc(C(F)(F)F)cc3)n2)cc1
15,> 225 °C,Cc1ccc(C)c(-c2cccc3c2OC(CN)C3)c1 (centres undefined)
16,150 to 155 °C,COC(=O)C1CN(C(C)=O)c2ccccc2CN1S(=O)(=O)c1ccc(OC)cc1 (centres undefined)
17,44.5 to 46.5 °C,Clc1cc(Cl)cc(CC(Cl)CC(Cl)(Cl)Cl)c1 (centres undefined)
18,136 to 139 °C,O=C(C(=O)c1cccc(OCCCN2CCCC2)c1)c1cccc(OCCCN2CCCC2)c1
19,244 to 246 °C,Cn1c(COc2ccc(CC3SC(=O)NC3=O)cc2)nc2cncnc21 (centres undefined)
20,177 °C,O=C(NCCC(F)(F)F)c1nc(Cl)c(Cl)[nH]1
21,244 °C,Cn1c(=O)c2c(NN)nccc2n(C)c1=O
22,138 to 140 °C,O=C1CCC(n2nc(-c3c(-c4ccccc4)nn4ccccc34)ccc2=O)CC1
